Data published in the supplement of paper PMC8612539.

Test system: Pasteurella multocida
Assay: minimum inhibitory concentration (MIC)
Experimental: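 Broth microdilution MIC (Sensititre BOPO7F bovine plate, CLSI methods) of 19 antimicrobials against field isolates of P. multocida, M. haemolytica, H. somni (deep nasopharyngeal swabs) and E. coli, Enterococcus spp. (rectal swabs) from weaned dairy heifers. Incubation 16-24 h at 35 C. MIC is the lowest concentration preventing visible growth. Values with <= or > lie at the tested range limits. Trimethoprim-sulfamethoxazole is given as the trimethoprim component of a 1:19 mixture.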

[1] = isolate (source animal id): 104
[2] = isolate (source animal id): 115
[3] = isolate (source animal id): 117
[4] = isolate (source animal id): 118
[5] = isolate (source animal id): 121
[6] = isolate (source animal id): 124
[7] = isolate (source animal id): 125
[8] = isolate (source animal id): 128
[9] = isolate (source animal id): 131
[10] = isolate (source animal id): 135
[11] = isolate (source animal id): 136
[12] = isolate (source animal id): 140
[13] = isolate (source animal id): 144
[14] = isolate (source animal id): 146
[15] = isolate (source animal id): 150
[16] = isolate (source animal id): 151
[17] = isolate (source animal id): 153
[18] = isolate (source animal id): 155
[19] = isolate (source animal id): 157
[20] = isolate (source animal id): 160
[21] = isolate (source animal id): 164
[22] = isolate (source animal id): 165
[23] = isolate (source animal id): 167
[24] = isolate (source animal id): 168
[25] = isolate (source animal id): 169
[26] = isolate (source animal id): 170
[27] = isolate (source animal id): 171
[28] = isolate (source animal id): 172
[29] = isolate (source animal id): 173
[30] = isolate (source animal id): 174
[31] = isolate (source animal id): 175
[32] = isolate (source animal id): 176
[33] = isolate (source animal id): 177
[34] = isolate (source animal id): 178
[35] = isolate (source animal id): 179
[36] = isolate (source animal id): 182
[37] = isolate (source animal id): 192
[38] = isolate (source animal id): 193
[39] = isolate (source animal id): 195
[40] = isolate (source animal id): 196
[41] = isolate (source animal id): 197
[42] = isolate (source animal id): 198
[43] = isolate (source animal id): 199
[44] = isolate (source animal id): 200
[45] = isolate (source animal id): 201
[46] = isolate (source animal id): 203
[47] = isolate (source animal id): 204
[48] = isolate (source animal id): 205
[49] = isolate (source animal id): 206
[50] = isolate (source animal id): 207
[51] = isolate (source animal id): 208
[52] = isolate (source animal id): 209
[53] = isolate (source animal id): 210
[54] = isolate (source animal id): 213
[55] = isolate (source animal id): 216
[56] = isolate (source animal id): 223
[57] = isolate (source animal id): 227
[58] = isolate (source animal id): 229
[59] = isolate (source animal id): 233
[60] = isolate (source animal id): 234
[61] = isolate (source animal id): 237
[62] = isolate (source animal id): 241
[63] = isolate (source animal id): 245
[64] = isolate (source animal id): 247
[65] = isolate (source animal id): 250
[66] = isolate (source animal id): 254
[67] = isolate (source animal id): 255
[68] = isolate (source animal id): 258
[69] = isolate (source animal id): 261
[70] = isolate (source animal id): 262
[71] = isolate (source animal id): 269
[72] = isolate (source animal id): 270
[73] = isolate (source animal id): 274
[74] = isolate (source animal id): 275
[75] = isolate (source animal id): 276
[76] = isolate (source animal id): 277
[77] = isolate (source animal id): 278
[78] = isolate (source animal id): 279
[79] = isolate (source animal id): 280
[80] = isolate (source animal id): 284
[81] = isolate (source animal id): 285
[82] = isolate (source animal id): 287
[83] = isolate (source animal id): 290
[84] = isolate (source animal id): 294
[85] = isolate (source animal id): 295
[86] = isolate (source animal id): 296
[87] = isolate (source animal id): 307
[88] = isolate (source animal id): 310
[89] = isolate (source animal id): 311
[90] = isolate (source animal id): 312
[91] = isolate (source animal id): 313
[92] = isolate (source animal id): 315
[93] = isolate (source animal id): 316

Measured: minimum inhibitory concentration

C=C[C@]1(C)C[C@@H](OC(=O)CSCCN(CC)CC)[C@]2(C)[C@H](C)CC[C@]3(CCC(=O)[C@H]32)[C@@H](C)[C@@H]1O [Tiamulin]
> 32 µg/mL: [59] | [85] | [88] | [89]
16 µg/mL: isolate (source animal id): 10 | isolate (source animal id): 11 | isolate (source animal id): 12 | isolate (source animal id): 19 | isolate (source animal id): 23 | [10] | [19] | [25] | [30] | [32] | [46] | [51] | [52] | [54] | [56] | [57] | [67]
32 µg/mL: isolate (source animal id): 26 | isolate (source animal id): 98 | [1] | [2] | [3] | [4] | [5] | [6] | [7] | [8] | [9] | [11] | [12] | [13] | [14] | [15] | [16] | [17] | [18] | [20] | [21] | [22] | [23] | [24] | [26] | [27] | [28] | [29] | [31] | [33] | [34] | [35] | [36] | [37] | [38] | [39] | [40] | [41] | [42] | [43] | [44] | [45] | [47] | [48] | [49] | [50] | [53] | [55] | [58] | [60] | [61] | [62] | [63] | [64] | [65] | [66] | [68] | [69] | [70] | [71] | [72] | [73] | [74] | [75] | [76] | [77] | [78] | [79] | [80] | [81] | [82] | [83] | [84] | [86] | [87] | [90] | [91] | [92] | [93]

CC[C@H]1OC(=O)C[C@@H](O)[C@H](C)[C@@H](O[C@@H]2O[C@H](C)[C@@H](O)[C@H](N(C)C)[C@H]2O)[C@@H](CCN2CCCCC2)C[C@@H](C)C(=O)/C=C/C(C)=C/[C@@H]1CN1CCCCC1 [Tildipirosin]
2 µg/mL: [26] | [36] | [41] | [54]
> 16 µg/mL: isolate (source animal id): 10 | isolate (source animal id): 11 | isolate (source animal id): 12 | isolate (source animal id): 19 | isolate (source animal id): 23 | isolate (source animal id): 26 | isolate (source animal id): 98 | [1] | [2] | [3] | [4] | [5] | [6] | [7] | [8] | [9] | [10] | [11] | [12] | [13] | [14] | [15] | [16] | [17] | [18] | [19] | [20] | [21] | [22] | [24] | [29] | [42] | [48] | [53] | [56] | [58] | [59] | [60] | [61] | [62] | [63] | [64] | [65] | [66] | [67] | [69] | [70] | [72] | [73] | [74] | [75] | [77] | [78] | [79] | [80] | [81] | [82] | [83] | [84] | [85] | [86] | [87] | [88] | [89] | [90] | [91] | [92] | [93]
≤ 1 µg/mL: [23] | [25] | [27] | [28] | [30] | [31] | [32] | [33] | [34] | [35] | [37] | [38] | [39] | [40] | [43] | [44] | [45] | [46] | [47] | [49] | [50] | [51] | [52] | [55] | [57] | [68] | [71] | [76]

CC[C@H]1OC(=O)C[C@@H](O)[C@H](C)[C@@H](O[C@@H]2O[C@H](C)[C@@H](O)[C@H](N(C)C)[C@H]2O)[C@@H](CCN2C[C@H](C)C[C@H](C)C2)C[C@@H](C)C(=O)/C=C/C(C)=C/[C@@H]1CO[C@@H]1O[C@H](C)[C@@H](O)[C@@H](OC)[C@H]1OC [Tilmicosin]
> 16 µg/mL: isolate (source animal id): 10 | isolate (source animal id): 11 | isolate (source animal id): 12 | isolate (source animal id): 19 | isolate (source animal id): 23 | isolate (source animal id): 26 | isolate (source animal id): 98 | [1] | [2] | [3] | [4] | [5] | [6] | [7] | [8] | [9] | [10] | [11] | [12] | [13] | [14] | [15] | [16] | [17] | [18] | [20] | [21] | [22] | [24] | [29] | [42] | [48] | [53] | [56] | [58] | [59] | [60] | [61] | [62] | [63] | [64] | [65] | [66] | [67] | [69] | [70] | [72] | [73] | [74] | [75] | [77] | [78] | [79] | [80] | [81] | [82] | [83] | [84] | [85] | [86] | [87] | [88] | [89] | [90] | [91] | [92] | [93]
16 µg/mL: [19] | [26] | [36] | [41]
8 µg/mL: [23] | [27] | [28] | [30] | [31] | [32] | [33] | [38] | [39] | [40] | [43] | [45] | [47] | [49] | [50] | [54] | [55] | [68] | [71] | [76]
4 µg/mL: [25] | [34] | [35] | [37] | [44] | [46] | [51] | [52] | [57]

CCCNC[C@]1(O)[C@H](C)O[C@@H](O[C@H]2[C@H](C)[C@@H](O[C@@H]3O[C@H](C)C[C@H](N(C)C)[C@H]3O)[C@](C)(O)C[C@@H](C)CN[C@H](C)[C@@H](O)[C@](C)(O)[C@@H](CC)OC(=O)[C@@H]2C)C[C@@]1(C)OC [Tulathromycin]
≤ 8 µg/mL: isolate (source animal id): 10 | isolate (source animal id): 26 | isolate (source animal id): 98 | [3] | [6] | [7] | [18] | [19] | [23] | [24] | [25] | [26] | [27] | [28] | [30] | [31] | [32] | [33] | [34] | [35] | [36] | [37] | [38] | [39] | [40] | [41] | [43] | [44] | [45] | [46] | [47] | [49] | [50] | [51] | [52] | [54] | [55] | [57] | [58] | [59] | [60] | [63] | [65] | [68] | [69] | [71] | [72] | [73] | [74] | [76] | [77] | [78] | [80] | [83] | [84] | [86] | [87] | [90]
32 µg/mL: isolate (source animal id): 11 | isolate (source animal id): 12 | isolate (source animal id): 19 | [2] | [5] | [8] | [11] | [66]
64 µg/mL: [15] | [16] | [20] | [21] | [22]
> 64 µg/mL: [1] | [9] | [10] | [79]
16 µg/mL: isolate (source animal id): 23 | [4] | [12] | [13] | [14] | [17] | [29] | [42] | [48] | [53] | [56] | [61] | [62] | [64] | [67] | [70] | [75] | [81] | [82] | [85] | [88] | [89] | [91] | [92] | [93]
